Columns and labels:
[1] = biological target: T1, Interstitial collagenase (Homo sapiens) (UniProt P03956); experiment: Inhibition of matrix metalloprotease-1 (HFC)
T1 sequence (whole entry): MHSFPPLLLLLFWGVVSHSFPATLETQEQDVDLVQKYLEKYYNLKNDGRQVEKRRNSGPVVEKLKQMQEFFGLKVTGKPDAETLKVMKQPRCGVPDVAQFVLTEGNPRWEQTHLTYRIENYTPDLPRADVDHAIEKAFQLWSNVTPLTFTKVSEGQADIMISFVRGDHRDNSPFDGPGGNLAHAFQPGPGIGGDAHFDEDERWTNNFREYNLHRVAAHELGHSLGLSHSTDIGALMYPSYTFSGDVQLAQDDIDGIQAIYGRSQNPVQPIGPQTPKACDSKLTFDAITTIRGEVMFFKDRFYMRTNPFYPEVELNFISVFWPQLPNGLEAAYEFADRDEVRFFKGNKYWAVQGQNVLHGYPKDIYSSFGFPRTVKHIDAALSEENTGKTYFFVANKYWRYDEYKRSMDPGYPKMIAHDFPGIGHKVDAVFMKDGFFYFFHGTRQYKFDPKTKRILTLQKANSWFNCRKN

[2] = biological target: 72 kDa type IV collagenase (Homo sapiens) (UniProt P08253); experiment: Inhibition of matrix metalloprotease-2 (Gel.A)
72 kDa type IV collagenase (Homo sapiens), sequence (P08253 110-660 limits assumed): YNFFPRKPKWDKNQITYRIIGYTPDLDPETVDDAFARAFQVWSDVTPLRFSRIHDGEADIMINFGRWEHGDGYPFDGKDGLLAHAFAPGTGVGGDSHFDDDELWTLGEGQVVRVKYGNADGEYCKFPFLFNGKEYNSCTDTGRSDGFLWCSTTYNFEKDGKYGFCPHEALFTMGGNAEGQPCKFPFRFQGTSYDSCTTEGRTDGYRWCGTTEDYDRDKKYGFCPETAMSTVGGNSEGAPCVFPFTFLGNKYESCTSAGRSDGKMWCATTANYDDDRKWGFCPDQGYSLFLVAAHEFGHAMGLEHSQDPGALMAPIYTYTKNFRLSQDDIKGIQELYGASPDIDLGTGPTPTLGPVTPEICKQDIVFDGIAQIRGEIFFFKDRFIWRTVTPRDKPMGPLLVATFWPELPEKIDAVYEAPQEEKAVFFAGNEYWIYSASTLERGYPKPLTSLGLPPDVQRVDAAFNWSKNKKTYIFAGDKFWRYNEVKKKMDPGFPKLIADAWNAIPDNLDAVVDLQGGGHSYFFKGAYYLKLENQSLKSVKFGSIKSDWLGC

[3] = biological target: Stromelysin-1 (Homo sapiens) (UniProt P08254); experiment: Inhibition of matrix metalloprotease-3 (Stromelysin-1)
Stromelysin-1 (Homo sapiens), sequence (P08254 100-477 limits assumed): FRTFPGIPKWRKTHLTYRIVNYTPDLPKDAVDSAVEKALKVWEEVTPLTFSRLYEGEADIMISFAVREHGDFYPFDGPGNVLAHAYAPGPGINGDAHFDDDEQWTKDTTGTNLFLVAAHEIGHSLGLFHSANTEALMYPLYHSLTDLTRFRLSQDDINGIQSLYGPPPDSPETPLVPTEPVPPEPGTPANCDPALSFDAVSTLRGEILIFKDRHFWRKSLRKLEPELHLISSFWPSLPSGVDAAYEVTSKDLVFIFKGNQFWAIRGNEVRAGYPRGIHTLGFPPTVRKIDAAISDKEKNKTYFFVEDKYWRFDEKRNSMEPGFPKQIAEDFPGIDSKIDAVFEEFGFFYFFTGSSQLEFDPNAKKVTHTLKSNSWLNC

[4] = biological target: T2, Matrilysin (Homo sapiens) (UniProt P09237); experiment: Inhibition of matrix metalloprotease-7 (Matrilysin)
T2 sequence (whole entry): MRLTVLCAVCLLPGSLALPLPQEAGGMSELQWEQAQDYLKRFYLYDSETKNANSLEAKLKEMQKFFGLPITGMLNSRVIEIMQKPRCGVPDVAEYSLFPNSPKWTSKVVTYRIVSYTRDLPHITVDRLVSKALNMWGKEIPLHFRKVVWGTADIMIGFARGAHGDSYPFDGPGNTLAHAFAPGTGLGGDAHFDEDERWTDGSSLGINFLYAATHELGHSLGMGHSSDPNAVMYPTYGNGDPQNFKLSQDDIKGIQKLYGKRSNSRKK

[5] = system: Rattus norvegicus; experiment: Compound was tested for inhibition of Tumor Necrosis Factor production in rat at a peroral dose of 5 mg/kg; assay type: functional; conditions: route oral
[6] = system: Rattus norvegicus; experiment: Compound was tested for inhibition of Tumor Necrosis Factor production in rat at a peroral dose of 10 mg/kg; assay type: functional; conditions: route oral
[7] = system: Rattus norvegicus; experiment: Compound was tested for inhibition of Tumor Necrosis Factor production in rat at a peroral dose of 2.5 mg/kg; assay type: functional; conditions: route oral
[8] = species: Rattus norvegicus; experiment: Compound was tested for area under curve in rat; assay type: ADME, organism-based; set-up: concentration or dose not given beside the values; conditions: in vivo
[9] = Maximum concentration value was evaluated for high sustained blood levels in rat after 30 min of administration; assay type: ADME, organism-based
[10] = Maximum concentration value was evaluated for high sustained blood levels in rat after 2 hr of administration; assay type: ADME, organism-based
[11] = Maximum concentration value was evaluated for high sustained blood levels in rat after 1 hr of administration; assay type: ADME, organism-based

`CNC(=O)[C@@H](NC(=O)[C@H](CC(C)C)[C@@H](C(=O)NO)C1CCN(C)CC1)C(C)(C)C` gave an Activity [1] of 30 nM, an Activity [2] of 3 nM and an Activity [3] of 500 nM. The Activity [4] was 200 nM.

Compound `CNC(=O)[C@@H](NC(=O)[C@H](CC(C)C)[C@@H](C(=O)NO)C1CCSC1)C(C)(C)C` (stereo not given in full) has an Activity [1] of 5 nM, an Activity [2] of 5 nM and an Activity [3] of 40 nM. The Activity [4] was 4 nM.

For `CC(C)CC(C(=O)N[C@H](C(=O)Nc1ccccn1)C(C)(C)C)C(C(=O)NO)C1CCCC1` (single isomer, unassigned; 12m), the Activity [1] was 20 nM, the Activity [2] was 100 nM and the Activity [3] was 50 nM.

With `CNC(=O)[C@@H](NC(=O)C(CC(C)C)C(C(=O)NO)C1CCC(C(C)(C)C)CC1)C(C)(C)C` (single isomer, unassigned) the Activity [1] was 40 nM, the Activity [2] was 30 nM and the Activity [3] was 100 nM. The Activity [4] was 50 nM.

`CNC(=O)[C@@H](NC(=O)C(CC(C)C)C(O)C(=O)NO)C(C)(C)C` (single isomer, unassigned) gave an inhibition in vivo at 5 mg/kg [5] of 50%, an Activity [1] of 5 nM and an inhibition in vivo at 10 mg/kg [6] of 69%. It also gave an Activity [2] of 6 nM, an Activity [3] of 200 nM and an Activity [4] of 20 nM. For the same compound, the inhibition in vivo at 2.5 mg/kg [7] was 11%.

`CNC(=O)[C@@H](NC(=O)C(CC(C)C)C(C(=O)NO)C1CCC1)C(C)(C)C` (single isomer, unassigned) gave an Activity [1] of 3 nM, an Activity [2] of 2 nM and an Activity [3] of 50 nM. For the same compound, the Activity [4] was 20 nM.

Compound `CNC(=O)[C@@H](NC(=O)C(CC(C)C)C(C(=O)NO)C1CC1)C(C)(C)C` (single isomer, unassigned) has an Activity [1] of 20 nM, an AUC [8] of 1020 ng·h/mL and an Activity [2] of 100 nM. The Activity [3] was 300 nM, the Activity [4] was 200 nM and the Cmax [9] was 106 ng/mL.

In the case of `CC(C)C[C@@H](C(=O)N[C@H](C(=O)Nc1ccccn1)C(C)(C)C)[C@@H](C(=O)NO)C1CCC(C)CC1` (stereo not given in full), the Activity [1] is reported as 5 nM, the Activity [2] is reported as 40 nM and the Activity [3] is reported as 20 nM. For the same compound, the Activity [4] was 3 nM.

Work on `CNC(=O)[C@@H](NC(=O)[C@H](CC(C)C)[C@@H](C(=O)NO)C(C)C)C(C)(C)C` yielded an Activity [1] of 1 nM, an AUC [8] of 895 ng·h/mL and an Activity [2] of 1 nM. For the same compound, the Activity [3] was 40 nM, the Activity [4] was 5 nM and the Cmax [9] was 376 ng/mL.

For `CNC(=O)[C@@H](NC(=O)[C@H](CC(C)C)[C@@H](C(=O)NO)C1CCC(C)CC1)C(C)(C)C` (stereo not given in full), the Activity [1] was 4 nM, the Activity [2] was 9 nM and the Activity [3] was 40 nM. The Activity [4] was 7 nM.

`CC(C)CC(C(=O)N[C@H](C(=O)Nc1ccccn1)C(C)(C)C)C(C(=O)NO)C1CCCC1` (single isomer, unassigned; 12j) [listing 1 of 2 here] showed an Activity [1] of 3 nM, an Activity [2] of 30 nM and an Activity [3] of 20 nM. It also gave an Activity [4] of 3 nM.

`CC(C)CC(C(=O)N[C@H](C(=O)Nc1ccccn1)C(C)(C)C)C(C(=O)NO)C1CCCCC1` (single isomer, unassigned) gave an Activity [1] of 4 nM, an Activity [2] of 10 nM and an Activity [3] of 20 nM.

Work on `CC(C)CC(C(=O)N[C@H](C(=O)Nc1ccccn1)C(C)(C)C)C(C(=O)NO)C1CCCC1` (single isomer, unassigned; 12j) [listing 2 of 2 here] yielded a Cmax [10] of 70.7 ng/mL and an AUC [8] of 899 ng·h/mL.

With `CNC(=O)[C@@H](NC(=O)C(CC(C)C)C(C(=O)NO)C1CCCCC1)C(C)(C)C` (single isomer, unassigned) the Activity [1] was 4 nM, the Cmax [10] was 9.75 ng/mL and the AUC [8] was 155 ng·h/mL. For the same compound, the Activity [2] was 10 nM, the Activity [3] was 30 nM and the Activity [4] was 20 nM.

Compound `CNC(=O)[C@@H](NC(=O)C(CC(C)C)C(C(=O)NO)C1CCCC1)C(C)(C)C` (single isomer, unassigned) has an inhibition in vivo at 5 mg/kg [5] of 92%, an Activity [1] of 4 nM and an inhibition in vivo at 10 mg/kg [6] of 98%. For the same compound, the AUC [8] was 2090 ng·h/mL, the Activity [2] was 3 nM and the Activity [3] was 30 nM. The Activity [4] was 20 nM, the Cmax [11] was 336 ng/mL and the inhibition in vivo at 2.5 mg/kg [7] was 94%.

Source: ChEMBL document CHEMBL1131344, “The synthesis of novel matrix metalloproteinase inhibitors employing the Ireland-Claisen rearrangement” (Bioorg Med Chem Lett, 1998)
